The results in this text go back to patent US20240059698A1 (Accutar Biotechnology Inc., priority 2022, published 2024).

Assay type in all cases: cell-based
The subject of one test is HCC827 cells. As to the kind of experiment: Cell growth inhibition (CellTiter-Glo), HCC827. The note with it: Homo sapiens, 72 h, 3 days. The gist of the method:
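Readout was CellTiter-Glo luminescence after 3-day compound treatment at 37° C. Cells were seeded at 5000/well the previous night: HCC827 in RPMI/10% FBS, A431 in DMEM/10% FBS.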
(Cellular ATP, detected with luciferase, serves as a proxy for viable cell number.)

Test [1] relates to HCC827-SVD cells (human EGFR exon 20 insertion mutant D770_N771insSVD). In words: Cell growth inhibition (CellTiter-Glo), HCC827-SVD. The following applies: 72 h, 3 days. The gist of the method:
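Growth read by CellTiter-Glo luminescence after 3-day compound exposure at 37 °C. Engineered clonal HCC827 line (native EGFR deleted by CRISPR, mutant EGFR re-expressed) plated at 5000 cells/well in 10% FBS RPMI the night before dosing.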

For test [2], the system named is HCC827-YVMA cells (human ERBB2 exon20 insertion mutant A775_G776ins YVMA). In words: Cell growth inhibition (CellTiter-Glo), HCC827-YVMA. The following applies: 72 h, HCC827-YVMA cells, 3 days, CellTiter-Glo, read-out: Cell growth inhibition, GI50 (nM) HCC827-YVMA. The gist of the method:
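Growth in RPMI with 10% FBS was measured by CellTiter-Glo luminescence after 3 days at 37 °C with test compounds across a concentration range. The single-clone HCC827 lines carry a lentiviral YVMA (ERBB2) or ASV (EGFR) exon 20 insertion, with endogenous EGFR removed via sgRNA/Cas9.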

The test system of another test is A431 cells. In words: Cell growth inhibition (CellTiter-Glo), A431. The following applies: Homo sapiens, A-431, 72 h, 3 days. The protocol: 2. Cell Growth Inhibition for HCC827, HCC827-SVD, HCC827-ASV, HCC827-YVMA, and A431.
HCC827(ATCC), HCC827-SVD, HCC827-ASV, and HCC827-YVMA cells were seeded in 96-well plates at 5000 cells/well in 90 μL of RPMI growth medium containing 10% FBS and 1% Penicillin Streptomycin. A431 (ATCC) cells were seeded in 96-well plates at 5000 cells/well in 90 μL of DMEM growth medium containing 10% FBS and 1% Penicillin Streptomycin. Cells were incubated at 37° C. overnight and then administered with 10 μL 10× test compounds prepared in the growth medium at various concentrations. After administration of the compounds, cells were incubated at 37° C. for 3 days. Before the CellTiter-Glo assay, the plates were equilibrated at room temperature for approximately 30 minutes. 100 ul of CellTiter-Glo reagent (Promega) was added to each well. The plates were then incubated at room temperature for 10 minutes and luminescence was recorded by the EnSight® multimode plate reader (PerkinElmer). Table 7 listed selected compounds in cellular growth assay.

`C=CC(=O)N1CCC(c2n[nH]c3ncnc(Nc4ccc(O[C@H]5CCCN(S(=O)(=O)c6ccccc6)C5)cc4F)c23)CC1` [Compound 165, (S)-1-(4-(4-((2-fluoro-4-((1-(phenylsulfonyl)piperidin-3-yl)oxy)phenyl)amino)-1H-pyrazolo[3,4-d]pyrimidin-3-yl)piperidin-1-yl)prop-2-en-1-one]: the GI50 was 200 to 1000 nM with HCC827 cells, 50 to 200 nM in test [1], 50 to 200 nM in test [2] and more than 1000 nM with A431 cells.
Regarding `C=CC(=O)N1CCC(c2n[nH]c3ncnc(Nc4ccc(Oc5ccnc(N6CC(C)(OC)C6)c5)cc4F)c23)CC1` [Compound 178, 1-(4-(4-((2-fluoro-4-((2-(3-methoxy-3-methylazetidin-1-yl)pyridin-4-yl)oxy)phenyl)amino)-1H-pyrazolo[3,4-d]pyrimidin-3-yl)piperidin-1-yl)prop-2-en-1-one], the GI50 in the test with HCC827 cells was more than 1000 nM; in test [1] it was 200 to 1000 nM; in test [2], 50 to 200 nM; with A431 cells, more than 1000 nM.
On to `C=CC(=O)N1CCC(c2n[nH]c3ncnc(Nc4ccc(Oc5ccnc(N6CCC(C#N)C6)c5)cc4F)c23)CC1` (centres unmarked) [Compound 179, 1-(4-(4-((3-(1-acryloylpiperidin-4-yl)-1H-pyrazolo[3,4-d]pyrimidin-4-yl)amino)-3-fluorophenoxy)pyridin-2-yl)pyrrolidine-3-carbonitrile], for which the GI50 in the test with HCC827 cells was more than 1000 nM; in test [1] it was 200 to 1000 nM; in test [2] it was 200 to 1000 nM; in the test on A431 cells, more than 1000 nM.
For `C=CC(=O)N1CCC(c2c[nH]c3ncnc(Nc4ccc(Oc5nc(-c6cnc(OC)nc6)cs5)cc4F)c23)CC1` [Compound 149, 1-(4-(4-((2-fluoro-4-((4-(2-methoxypyrimidin-5-yl)thiazol-2-yl)oxy)phenyl)amino)-7H-pyrrolo[2,3-d]pyrimidin-5-yl)piperidin-1-yl)prop-2-en-1-one], the GI50 with HCC827 cells was more than 1000 nM; in test [1], 50 to 200 nM; in test [2] it was 50 to 200 nM; in the test on A431 cells, more than 1000 nM.
Take `C=CC(=O)N1CCC(c2ccn3ncnc(Nc4ccc(Oc5nc(-c6ccnn6C)cs5)cc4F)c23)CC1` [Compound 207, 1-(4-(4-((2-fluoro-4-((4-(1-methyl-1H-pyrazol-5-yl)thiazol-2-yl)oxy)phenyl)amino)pyrrolo[2,1-f][1,2,4]triazin-5-yl)piperidin-1-yl)prop-2-en-1-one]: the GI50 in the test with HCC827 cells is more than 1000 nM; in test [1], 200 to 1000 nM; in test [2] it was 50 to 200 nM; with A431 cells it was more than 1000 nM.
As for `C=CC(=O)N1CCC(c2ccn3ncnc(Nc4ccc(Oc5ccnc(N6CC7(CCOCC7)C6)c5)cc4F)c23)CC1` [Compound 205, 1-(4-(4-((4-((2-(7-oxa-2-azaspiro[3.5]nonan-2-yl)pyridin-4-yl)oxy)-2-fluorophenyl)amino)pyrrolo[2,1-f][1,2,4]triazin-5-yl)piperidin-1-yl)prop-2-en-1-one], the GI50 with HCC827 cells is more than 1000 nM; in test [1], 200 to 1000 nM; in test [2], 50 to 200 nM; with A431 cells, more than 1000 nM.
In the case of `C=CC(=O)N1CCC(c2ccn3ncnc(Nc4ccc(Oc5ccnc(N6CC(C)(OC)C6)c5)cc4F)c23)CC1` [Compound 203, 1-(4-(4-((2-fluoro-4-((2-(3-methoxy-3-methylazetidin-1-yl)pyridin-4-yl)oxy)phenyl)amino)pyrrolo[2,1-f][1,2,4]triazin-5-yl)piperidin-1-yl)prop-2-en-1-one], the GI50 is more than 1000 nM in the test on HCC827 cells, 200 to 1000 nM in test [1], 50 to 200 nM in test [2] and more than 1000 nM in the test with A431 cells.
As to `C=CC(=O)N1CCC(c2c[nH]c3ncnc(Nc4ccc(Oc5ccnc(N6C[C@@H](C)O[C@@H](C)C6)c5)c(Cl)c4F)c23)CC1` [Compound 142, 1-(4-(4-((3-chloro-4-((2-((2S,6R)-2,6-dimethylmorpholino)pyridin-4-yl)oxy)-2-fluorophenyl)amino)-7H-pyrrolo[2,3-d]pyrimidin-5-yl)piperidin-1-yl)prop-2-en-1-one], the GI50 with HCC827 cells is more than 1000 nM; in test [1] it was less than 50 nM; in test [2] it was less than 50 nM; in the test with A431 cells, more than 1000 nM.

One may read the GI50 as the concentration giving 50% growth inhibition.
